Source: ChEMBL document CHEMBL1201862, “PubChem BioAssay data set” (2004)
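Briefly, cells in 96-well plates were exposed to five compound concentrations for 48 h, and endpoints were estimated by linear interpolation. GI50: concentration for 50% inhibition of growth.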 Activity calls are given as the source filed them. Cut-off read from the data, not from the text of the source: active = GI50 up to about 1.1 µM and inactive = higher.

Key:
Assay in all cases: DTP human tumour cell line panel, 48 h
[1] = tested on: 786-0
[2] = tested on: A498
[3] = tested on: ACHN
[4] = tested on: BT-549
[5] = tested on: CCRF-CEM
[6] = tested on: DU-145
[7] = tested on: EKVX
[8] = tested on: HCT-15
[9] = tested on: Hs-578T
[10] = tested on: LOX IMVI
[11] = tested on: MDA-MB-231
[12] = tested on: NCI/ADR-RES
[13] = tested on: OVCAR-4
[14] = tested on: RXF 393
[15] = tested on: SK-MEL-28
[16] = tested on: SW-620
[17] = tested on: T47D
[18] = tested on: U-251
[19] = tested on: UACC-257

SMILES	GI50 [1]	GI50 [2]	GI50 [3]	GI50 [4]	GI50 [5]	GI50 [6]	GI50 [7]	GI50 [8]	GI50 [9]	GI50 [10]	GI50 [11]	GI50 [12]	GI50 [13]	GI50 [14]	GI50 [15]	GI50 [16]	GI50 [17]	GI50 [18]	GI50 [19]
COc1ccc2nc3n(c2c1)C(c1c(F)cccc1F)SC3 (configuration not stated)	39.6 µM (inactive)	95.3 µM (inactive)	34 µM (inactive)	> 100 µM (inactive)	54.1 µM (inactive)	42.3 µM (inactive)	18.9 µM (inactive)	43.2 µM	22.3 µM (inactive)	47.3 µM (inactive)	> 100 µM (inactive)	19.1 µM (inactive)	64.4 µM (inactive)	> 100 µM (inactive)	> 100 µM (inactive)	64.6 µM (inactive)	22.3 µM (inactive)	51.8 µM (inactive)	> 100 µM (inactive)
CCNc1cc2oc(=O)cc(C(F)(F)F)c2cc1C	> 100 µM (inactive)	> 100 µM (inactive)	> 100 µM (inactive)	> 100 µM (inactive)	–	> 100 µM (inactive)	31.3 µM (inactive)	> 100 µM	> 100 µM (inactive)	> 100 µM (inactive)	> 100 µM (inactive)	> 100 µM (inactive)	> 100 µM (inactive)	> 100 µM (inactive)	> 100 µM (inactive)	> 100 µM (inactive)	> 100 µM (inactive)	> 100 µM (inactive)	> 100 µM (inactive)
CCCC(=O)OCC1(CO)C/C(=C/CC(C(C)C)C(C)C)C(=O)O1 (configuration not stated)	> 100 µM (inactive)	> 100 µM (inactive)	> 100 µM (inactive)	> 100 µM (inactive)	> 100 µM (inactive)	> 100 µM (inactive)	> 100 µM (inactive)	> 100 µM	> 100 µM (inactive)	17.4 µM (inactive)	> 100 µM (inactive)	> 100 µM (inactive)	> 100 µM (inactive)	> 100 µM (inactive)	> 100 µM (inactive)	> 100 µM (inactive)	> 100 µM (inactive)	> 100 µM (inactive)	> 100 µM (inactive)
CC1=NC2=Nc3nc(C)cc[n+]3CN2C=C1	48.3 µM (inactive)	> 100 µM (inactive)	> 100 µM (inactive)	49.3 µM (inactive)	–	> 100 µM (inactive)	30.7 µM (inactive)	88.5 µM	> 100 µM (inactive)	29.8 µM (inactive)	54.7 µM (inactive)	> 100 µM (inactive)	> 100 µM (inactive)	> 100 µM (inactive)	53.1 µM (inactive)	> 100 µM (inactive)	70 µM (inactive)	> 100 µM (inactive)	> 100 µM (inactive)
Clc1cc(Cl)cc(C2ON=C(c3ccccc3)N2C23CC4CC(CC(C4)C2)C3)c1 (configuration not stated)	> 10 µM (inactive)	> 10 µM (inactive)	> 10 µM (inactive)	> 10 µM (inactive)	> 10 µM (inactive)	> 10 µM (inactive)	> 10 µM (inactive)	> 10 µM	> 10 µM (inactive)	> 10 µM (inactive)	> 10 µM (inactive)	> 10 µM (inactive)	> 10 µM (inactive)	> 10 µM (inactive)	> 10 µM (inactive)	> 10 µM (inactive)	> 10 µM (inactive)	> 10 µM (inactive)	> 10 µM (inactive)
CC(C)(C)c1cc(C(P(=O)(c2ccccc2)c2ccccc2)P(=O)(c2ccccc2)c2ccccc2)cc(C(C)(C)C)c1O	2.8 µM (inactive)	2.74 µM (inactive)	3.18 µM (inactive)	3.36 µM (inactive)	2.21 µM (inactive)	3.3 µM (inactive)	2.98 µM (inactive)	2.96 µM	2.48 µM (inactive)	1.92 µM (inactive)	2.76 µM (inactive)	2.12 µM (inactive)	3.35 µM (inactive)	3.19 µM (inactive)	1.95 µM (inactive)	3.21 µM (inactive)	2.9 µM (inactive)	2.77 µM (inactive)	2.04 µM (inactive)
CCOC(=O)C(NC(=O)CC(C)C)(Nc1ccc(S(=O)(=O)Nc2nc(C)cc(C)n2)cc1)C(F)(F)F (configuration not stated)	> 100 µM (inactive)	> 100 µM (inactive)	> 100 µM (inactive)	> 100 µM (inactive)	> 100 µM (inactive)	> 100 µM (inactive)	> 100 µM (inactive)	> 100 µM	> 100 µM (inactive)	> 100 µM (inactive)	> 100 µM (inactive)	> 100 µM (inactive)	> 100 µM (inactive)	> 100 µM (inactive)	> 100 µM (inactive)	> 100 µM (inactive)	> 100 µM (inactive)	> 100 µM (inactive)	> 100 µM (inactive)
Cc1ccc(C)c(COCCOCn2cc(N3CCOCC3)c(=O)[nH]c2=O)c1	> 100 µM (inactive)	> 100 µM (inactive)	> 100 µM (inactive)	> 100 µM (inactive)	> 100 µM (inactive)	> 100 µM (inactive)	> 100 µM (inactive)	> 100 µM	54.6 µM (inactive)	> 100 µM (inactive)	> 100 µM (inactive)	> 100 µM (inactive)	–	> 100 µM (inactive)	> 100 µM (inactive)	> 100 µM (inactive)	> 100 µM (inactive)	> 100 µM (inactive)	> 100 µM (inactive)
O=C(O)CN(CC(=O)O)C1CCCCC1N(CC(=O)O)CC(=O)NCCN=C=S (configuration not stated)	–	> 100 µM (inactive)	> 100 µM (inactive)	> 100 µM (inactive)	> 100 µM (inactive)	> 100 µM (inactive)	> 100 µM (inactive)	> 100 µM	> 100 µM (inactive)	> 100 µM (inactive)	> 100 µM (inactive)	> 100 µM (inactive)	–	> 100 µM (inactive)	> 100 µM (inactive)	> 100 µM (inactive)	> 100 µM (inactive)	> 100 µM (inactive)	> 100 µM (inactive)
O=c1[nH]nc(-c2ccccc2)n1/N=C/c1cccnc1	> 100 µM (inactive)	27 µM (inactive)	63.7 µM (inactive)	39.2 µM (inactive)	69.5 µM (inactive)	78.5 µM (inactive)	71.1 µM (inactive)	61.1 µM	37.5 µM (inactive)	> 100 µM (inactive)	48.8 µM (inactive)	69.8 µM (inactive)	–	34.4 µM (inactive)	> 100 µM (inactive)	> 100 µM (inactive)	31.6 µM (inactive)	76.4 µM (inactive)	> 100 µM (inactive)
CCOC(=O)c1c[nH]c(C(=O)C=[N+]=[N-])c1C1CCN(CC)C1=S (configuration not stated)	> 100 µM (inactive)	> 100 µM (inactive)	> 100 µM (inactive)	> 100 µM (inactive)	–	> 100 µM (inactive)	> 100 µM (inactive)	> 100 µM	> 100 µM (inactive)	–	> 100 µM (inactive)	> 100 µM (inactive)	> 100 µM (inactive)	> 100 µM (inactive)	> 100 µM (inactive)	> 100 µM (inactive)	> 100 µM (inactive)	> 100 µM (inactive)	> 100 µM (inactive)
CC(C)NC1(C(N)=O)CCN(Cc2ccccc2)CC1	> 100 µM (inactive)	> 100 µM (inactive)	> 100 µM (inactive)	> 100 µM (inactive)	–	> 100 µM (inactive)	> 100 µM (inactive)	> 100 µM	> 100 µM (inactive)	> 100 µM (inactive)	> 100 µM (inactive)	> 100 µM (inactive)	> 100 µM (inactive)	> 100 µM (inactive)	> 100 µM (inactive)	> 100 µM (inactive)	> 100 µM (inactive)	> 100 µM (inactive)	> 100 µM (inactive)
Clc1c(Cl)c(Cl)c2nn(C3CCCO3)nc2c1Cl (configuration not stated)	70.3 µM (inactive)	> 100 µM (inactive)	–	26.8 µM (inactive)	82.2 µM (inactive)	> 100 µM (inactive)	19.5 µM (inactive)	–	11.7 µM (inactive)	–	76.7 µM (inactive)	42.8 µM (inactive)	–	> 100 µM (inactive)	–	–	37 µM (inactive)	41.4 µM (inactive)	72.6 µM (inactive)
CCOC(=O)C(NNS(=O)(=O)c1ccc(C)cc1)S(=O)(=O)C(F)(F)C(F)(F)C(F)(F)C(F)(F)F (configuration not stated)	> 100 µM (inactive)	> 100 µM (inactive)	> 100 µM (inactive)	> 100 µM (inactive)	> 10 µM (inactive)	> 100 µM (inactive)	> 100 µM (inactive)	> 100 µM	97.3 µM (inactive)	> 100 µM (inactive)	> 100 µM (inactive)	> 100 µM (inactive)	> 100 µM (inactive)	–	> 100 µM (inactive)	> 100 µM (inactive)	> 100 µM (inactive)	88.9 µM (inactive)	> 100 µM (inactive)
COC(=O)c1c(O)ccc2c1c1c(n2Cc2ccc(Cl)cc2Cl)C(=O)c2ccccc2C1	74.5 µM (inactive)	> 100 µM (inactive)	–	75.9 µM (inactive)	23.2 µM (inactive)	> 100 µM (inactive)	–	42.7 µM	93.8 µM (inactive)	27 µM (inactive)	69.7 µM (inactive)	34 µM (inactive)	27.1 µM (inactive)	31 µM (inactive)	45.2 µM (inactive)	57 µM (inactive)	40.6 µM (inactive)	38 µM (inactive)	42.2 µM (inactive)
